Literature values, collected in article PMC10033663, “Acute pharmacological profile of 2C-B-Fly-NBOMe in male Wistar rats—pharmacokinetics, effects on behaviour and thermoregulation” (Frontiers in Pharmacology, 2023).
Where two headings read alike, the source gives them in different places.

Key:
[1] = parameters: method as in ref Adams and Geyer, 1982; Páleníček et al., 2013; Páleníček et al., 2008; conditions: ref Adams and Geyer, 1982, Páleníček et al., 2013, 2008; cited from earlier work
[2] = 50 mg/kg s. c., ref Rohanová et al., 2008, cited from earlier work
[3] = rat blood serum; 1 mg/kg, peroral administration; ref Baralla et al. (2019); cited from earlier work
rats [4] = system: rats; parameters: method as in Nakamura et al., 2018; conditions: 0.25 intraperitoneally (i. p.), ambient temperature 29°C, ref Nakamura et al., 2018; cited from earlier work
[5] = parameters: method as in Gatch et al., 2017; Wojtas et al., 2021; conditions: administered i. p.; ref Gatch et al., 2017; Wojtas et al., 2021; cited from earlier work
rats [6] = system: rats; parameters: method as in Halberstadt and Geyer, 2017; conditions: ref Halberstadt and Geyer, 2017; cited from earlier work
[7] = parameters: method as in ref Šíchová et al., 2022; conditions: 5 mg/kg; individually-housed animals; ref Šíchová et al., 2022; cited from earlier work
[8] = parameters: method as in ref Šíchová et al., 2022; conditions: compared with 2C-B-Fly-NBOMe; ref Šíchová et al., 2022; cited from earlier work
[9] = parameters: method as in ref Šíchová et al., 2022; conditions: ref Šíchová et al., 2022; cited from earlier work
[10] = parameters: method as in ref Šíchová et al., 2022; conditions: 5 mg/kg, ref Šíchová et al., 2022, cited from earlier work
rats [11] = system: rats; parameters: method as in Miliano et al. (2019); conditions: ref Miliano et al. (2019), cited from earlier work
rats [12] = conditions: 0.5 mg/kg i. p.; female and male rats; ref Miliano et al. (2019); cited from earlier work
mice = system: mice; parameters: method as in Halberstadt, 2017; conditions: ref Halberstadt, 2017, cited from earlier work; for locomotion: mice

For `COc1cc(CCN)c(OC)cc1Br` [2C-B, 4-Bromo-2,5-dimethoxyphenethylamine], the “biphasic effect (low and high doses, temporal onsets)” value [1] is given as “biphasic effect”, the “time for which presence was detectable” value ([2]; all collected tissues) is given as “up to 5 h” and the “time of peak concentration” value ([2]; blood serum) is given as no more than 30 min. The “time of peak concentration” value ([2]; brain, liver, and lung tissue) was no more than 60 min.

In the case of `NCCc1c2c(cc3c1OCC3)OCC2` [2C-FLY, 2-(2,3,6,7-tetrahydrofuro [2,3-f][1]benzofuran-4-yl)ethanamine], the “time of peak concentration” value [3] is given as 60 min.

In the case of `COc1cc(CCNCc2ccccc2OC)c(OC)cc1Br` [25B-NBOMe], the body temperature (rats [4]) is listed as “hyperthermia, but only in higher ambient temperature” and the locomotor activity [5] is listed as “dose-dependent decrease in locomotor activity”.

For `COc1cc(CCNCc2ccccc2OC)c(OC)cc1Cl` [25C-NBOMe], the locomotor activity [5] is given as “dose-dependent decrease in locomotor activity”.

For `COc1cc(CCNCc2ccccc2O)c(OC)cc1C#N` [25CN-NBOH], the PPI (rats [6]) is listed as “tendencies to disrupt PPI”.

For `COc1cc(CCNCc2ccccc2OC)c(OC)cc1C#N` [25CN-NBOMe], the body temperature [7] is listed as “significant hypothermic effect”, the locomotion [8] is listed as “similar, yet less pronounced decrease in locomotion” and the PPI [9] is listed as “affected PPI only in the highest dose of 5 mg/kg in the 15 min onset”. The half-life ([10]; blood serum) was 1.88 h and the half-life ([10]; brain tissue) was 2.28 h.

In the case of `COc1cc(CCNCc2ccccc2OC)c(OC)cc1I` [25I-NBOMe, 2-(4-iodo-2,5-dimethoxyphenyl)-N-[(2-methoxyphenyl)methyl]ethanamine], the ASR (rats [11]; highest dose (1 mg/kg i. p.)) is listed as “significant decrease of ASR”, the PPI (rats [11]) is listed as “dose-dependent inhibition of PPI” and the body temperature (rats [12]) is listed as “induced hyperthermia within 35–65 min in female rats, but not in males”. The locomotion (mice; 0.1 mg/kg s. c., 60 min temporal onset) was “significant hyperlocomotion”, the locomotion (mice; 3 mg/kg s. c.) was “hypolocomotion” and the “biphasic effect on locomotion by route” value (mice; s. c. versus i. p.) was “induced a biphasic effect after s. c. application, but interestingly not after i. p. injection”. The locomotor activity [5] was “dose-dependent decrease in locomotor activity”.

In the case of `CC(N)Cc1c2c(cc3c1OCC3)OCC2` (stereo not drawn) [FLY, 1-(2,3,6,7-tetra-hydrofuro [2,3-f][1]benzofuran-4-yl)propan-2-amine], the “time of peak concentration” value [3] is given as 30 min.

For `CCN(CC)C(=O)[C@@H]1C=C2c3cccc4[nH]cc(c34)C[C@H]2N(C)C1` [LSD, lysergic acid diethylamide], the “biphasic effect (low and high doses, temporal onsets)” value [1] is listed as “biphasic effect”.

For `COc1cc(CCN)cc(OC)c1OC` [mescaline], the “biphasic effect (low and high doses, temporal onsets)” value [1] is given as “biphasic effect”.
